# Test results: patent publication US20030199431A1, “Modified peptide nucleic acid (PNA) molecules” (priority 1999, published 2003)
# Like-named read-outs stand apart in the source and are kept apart here.
# Assays:
# E. coli K12 = type: cell-based, Escherichia coli
# Method: To test the effect of a Peptide without a PNA, peptide no. 2339, H-KFFKFFKFF-OH (SEQ ID NO: 1), was added to E. coli K12 in 10% and 100% medium (Mueller-Hinton broth).
# test culture = type: cell-based
substance,measurement,setting,value
H-KFFKFFKFF-OH [Peptide 2339],Bacterial growth inhibition,"E. coli K12; Peptide 100 nM, 4.0 × 10^3 bacteria/ml, 10% medium",− (Lagphase extended less than five times;)
same,Bacterial growth inhibition,"E. coli K12; Peptide 100 nM, 4.0 × 10^4 bacteria/ml, 10% medium",− (Lagphase extended less than five times;)
same,Bacterial growth inhibition,"E. coli K12; Peptide 100 nM, 7.9 × 10^3 bacteria/ml, 10% medium",− (Lagphase extended less than five times;)
same,Bacterial growth inhibition,"E. coli K12; Peptide 100 nM, 16 bacteria/ml, 100% medium",− (Lagphase extended less than five times)
same,Bacterial growth inhibition,"E. coli K12; Peptide 100 nM, 160 bacteria/ml, 100% medium",− (Lagphase extended less than five times)
same,Bacterial growth inhibition,"E. coli K12; Peptide 100 nM, 1600 bacteria/ml, 100% medium",− (Lagphase extended less than five times)
same,Bacterial growth inhibition,"E. coli K12; Peptide 300 nM, 4.0 × 10^3 bacteria/ml, 10% medium",− (Lagphase extended less than five times;)
same,Bacterial growth inhibition,"E. coli K12; Peptide 300 nM, 4.0 × 10^4 bacteria/ml, 10% medium",− (Lagphase extended less than five times;)
same,Bacterial growth inhibition,"E. coli K12; Peptide 300 nM, 7.9 × 10^3 bacteria/ml, 10% medium",− (Lagphase extended less than five times;)
same,Bacterial growth inhibition,"E. coli K12; Peptide 300 nM, 16 bacteria/ml, 100% medium",− (Lagphase extended less than five times)
same,Bacterial growth inhibition,"E. coli K12; Peptide 300 nM, 160 bacteria/ml, 100% medium",− (Lagphase extended less than five times)
same,Bacterial growth inhibition,"E. coli K12; Peptide 300 nM, 1600 bacteria/ml, 100% medium",− (Lagphase extended less than five times)
same,Bacterial growth inhibition,"E. coli K12; Peptide 500 nM, 4.0 × 10^3 bacteria/ml, 10% medium",− (Lagphase extended less than five times;)
same,Bacterial growth inhibition,"E. coli K12; Peptide 500 nM, 4.0 × 10^4 bacteria/ml, 10% medium",− (Lagphase extended less than five times;)
same,Bacterial growth inhibition,"E. coli K12; Peptide 500 nM, 7.9 × 10^3 bacteria/ml, 10% medium",− (Lagphase extended less than five times;)
same,Bacterial growth inhibition,"E. coli K12; Peptide 500 nM, 16 bacteria/ml, 100% medium",− (Lagphase extended less than five times)
same,Bacterial growth inhibition,"E. coli K12; Peptide 500 nM, 160 bacteria/ml, 100% medium",− (Lagphase extended less than five times)
same,Bacterial growth inhibition,"E. coli K12; Peptide 500 nM, 1600 bacteria/ml, 100% medium",− (Lagphase extended less than five times)
same,Bacterial growth inhibition,"E. coli K12; Peptide 700 nM, 4.0 × 10^3 bacteria/ml, 10% medium",− (Lagphase extended less than five times;)
same,Bacterial growth inhibition,"E. coli K12; Peptide 700 nM, 4.0 × 10^4 bacteria/ml, 10% medium",− (Lagphase extended less than five times;)
same,Bacterial growth inhibition,"E. coli K12; Peptide 700 nM, 7.9 × 10^3 bacteria/ml, 10% medium",− (Lagphase extended less than five times;)
same,Bacterial growth inhibition,"E. coli K12; Peptide 700 nM, 16 bacteria/ml, 100% medium",− (Lagphase extended less than five times)
same,Bacterial growth inhibition,"E. coli K12; Peptide 700 nM, 160 bacteria/ml, 100% medium",− (Lagphase extended less than five times)
same,Bacterial growth inhibition,"E. coli K12; Peptide 700 nM, 1600 bacteria/ml, 100% medium",− (Lagphase extended less than five times)
same,Bacterial growth inhibition,"E. coli K12; Peptide 900 nM, 4.0 × 10^3 bacteria/ml, 10% medium",− (Lagphase extended less than five times;)
same,Bacterial growth inhibition,"E. coli K12; Peptide 900 nM, 4.0 × 10^4 bacteria/ml, 10% medium",− (Lagphase extended less than five times;)
same,Bacterial growth inhibition,"E. coli K12; Peptide 900 nM, 7.9 × 10^3 bacteria/ml, 10% medium",− (Lagphase extended less than five times;)
same,Bacterial growth inhibition,"E. coli K12; Peptide 900 nM, 16 bacteria/ml, 100% medium",− (Lagphase extended less than five times)
same,Bacterial growth inhibition,"E. coli K12; Peptide 900 nM, 160 bacteria/ml, 100% medium",− (Lagphase extended less than five times)
same,Bacterial growth inhibition,"E. coli K12; Peptide 900 nM, 1600 bacteria/ml, 100% medium",− (Lagphase extended less than five times)
same,Bacterial growth inhibition,"E. coli K12; Peptide 1100 nM, 4.0 × 10^3 bacteria/ml, 10% medium",− (Lagphase extended less than five times;)
same,Bacterial growth inhibition,"E. coli K12; Peptide 1100 nM, 4.0 × 10^4 bacteria/ml, 10% medium",− (Lagphase extended less than five times;)
same,Bacterial growth inhibition,"E. coli K12; Peptide 1100 nM, 7.9 × 10^3 bacteria/ml, 10% medium",− (Lagphase extended less than five times;)
same,Bacterial growth inhibition,"E. coli K12; Peptide 1100 nM, 16 bacteria/ml, 100% medium",− (Lagphase extended less than five times)
same,Bacterial growth inhibition,"E. coli K12; Peptide 1100 nM, 160 bacteria/ml, 100% medium",− (Lagphase extended less than five times)
same,Bacterial growth inhibition,"E. coli K12; Peptide 1100 nM, 1600 bacteria/ml, 100% medium",− (Lagphase extended less than five times)
same,Bacterial growth inhibition,"E. coli K12; Peptide 1300 nM, 4.0 × 10^3 bacteria/ml, 10% medium",− (Lagphase extended less than five times;)
same,Bacterial growth inhibition,"E. coli K12; Peptide 1300 nM, 4.0 × 10^4 bacteria/ml, 10% medium",− (Lagphase extended less than five times;)
same,Bacterial growth inhibition,"E. coli K12; Peptide 1300 nM, 7.9 × 10^3 bacteria/ml, 10% medium",− (Lagphase extended less than five times;)
same,Bacterial growth inhibition,"E. coli K12; Peptide 1300 nM, 16 bacteria/ml, 100% medium",− (Lagphase extended less than five times)
same,Bacterial growth inhibition,"E. coli K12; Peptide 1300 nM, 160 bacteria/ml, 100% medium",− (Lagphase extended less than five times)
same,Bacterial growth inhibition,"E. coli K12; Peptide 1300 nM, 1600 bacteria/ml, 100% medium",− (Lagphase extended less than five times)
same,Bacterial growth inhibition,"E. coli K12; Peptide 1500 nM, 4.0 × 10^3 bacteria/ml, 10% medium",− (Lagphase extended less than five times;)
same,Bacterial growth inhibition,"E. coli K12; Peptide 1500 nM, 4.0 × 10^4 bacteria/ml, 10% medium",− (Lagphase extended less than five times;)
same,Bacterial growth inhibition,"E. coli K12; Peptide 1500 nM, 7.9 × 10^3 bacteria/ml, 10% medium",− (Lagphase extended less than five times;)
same,Bacterial growth inhibition,"E. coli K12; Peptide 1500 nM, 16 bacteria/ml, 100% medium",− (Lagphase extended less than five times)
same,Bacterial growth inhibition,"E. coli K12; Peptide 1500 nM, 160 bacteria/ml, 100% medium",− (Lagphase extended less than five times)
same,Bacterial growth inhibition,"E. coli K12; Peptide 1500 nM, 1600 bacteria/ml, 100% medium",− (Lagphase extended less than five times)
same,Bacterial growth inhibition,"E. coli K12; Peptide 2500 nM, 4.0 × 10^3 bacteria/ml, 10% medium",− (Lagphase extended less than five times;)
same,Bacterial growth inhibition,"E. coli K12; Peptide 2500 nM, 4.0 × 10^4 bacteria/ml, 10% medium",− (Lagphase extended less than five times;)
same,Bacterial growth inhibition,"E. coli K12; Peptide 2500 nM, 7.9 × 10^3 bacteria/ml, 10% medium",− (Lagphase extended less than five times;)
same,Bacterial growth inhibition,"E. coli K12; Peptide 2500 nM, 16 bacteria/ml, 100% medium",− (Lagphase extended less than five times)
same,Bacterial growth inhibition,"E. coli K12; Peptide 2500 nM, 160 bacteria/ml, 100% medium",− (Lagphase extended less than five times)
same,Bacterial growth inhibition,"E. coli K12; Peptide 2500 nM, 1600 bacteria/ml, 100% medium",− (Lagphase extended less than five times)
same,Bacterial growth inhibition,"E. coli K12; Peptide 5000 nM, 4.0 × 10^3 bacteria/ml, 10% medium","((+)) (Lagphase extended less than five times, but still with growth curve effect)"
same,Bacterial growth inhibition,"E. coli K12; Peptide 5000 nM, 4.0 × 10^4 bacteria/ml, 10% medium","((+)) (Lagphase extended less than five times, but still with growth curve effect)"
same,Bacterial growth inhibition,"E. coli K12; Peptide 5000 nM, 7.9 × 10^3 bacteria/ml, 10% medium","((+)) (Lagphase extended less than five times, but still with growth curve effect)"
same,Bacterial growth inhibition,"E. coli K12; Peptide 5000 nM, 16 bacteria/ml, 100% medium",− (Lagphase extended less than five times)
same,Bacterial growth inhibition,"E. coli K12; Peptide 5000 nM, 160 bacteria/ml, 100% medium",− (Lagphase extended less than five times)
same,Bacterial growth inhibition,"E. coli K12; Peptide 5000 nM, 1600 bacteria/ml, 100% medium",− (Lagphase extended less than five times)
same,Bacterial growth inhibition,"E. coli K12; Peptide 10000 nM, 4.0 × 10^3 bacteria/ml, 10% medium","((+)) (Lagphase extended less than five times, but still with growth curve effect)"
same,Bacterial growth inhibition,"E. coli K12; Peptide 10000 nM, 4.0 × 10^4 bacteria/ml, 10% medium","((+)) (Lagphase extended less than five times, but still with growth curve effect)"
same,Bacterial growth inhibition,"E. coli K12; Peptide 10000 nM, 7.9 × 10^3 bacteria/ml, 10% medium","((+)) (Lagphase extended less than five times, but still with growth curve effect)"
same,Bacterial growth inhibition,"E. coli K12; Peptide 10000 nM, 16 bacteria/ml, 100% medium",− (Lagphase extended less than five times)
same,Bacterial growth inhibition,"E. coli K12; Peptide 10000 nM, 160 bacteria/ml, 100% medium",− (Lagphase extended less than five times)
same,Bacterial growth inhibition,"E. coli K12; Peptide 10000 nM, 1600 bacteria/ml, 100% medium",− (Lagphase extended less than five times)
same,Bacterial growth inhibition,"E. coli K12; Peptide 15000 nM, 4.0 × 10^3 bacteria/ml, 10% medium","((+)) (Lagphase extended less than five times, but still with growth curve effect)"
same,Bacterial growth inhibition,"E. coli K12; Peptide 15000 nM, 4.0 × 10^4 bacteria/ml, 10% medium","((+)) (Lagphase extended less than five times, but still with growth curve effect)"
same,Bacterial growth inhibition,"E. coli K12; Peptide 15000 nM, 7.9 × 10^3 bacteria/ml, 10% medium","((+)) (Lagphase extended less than five times, but still with growth curve effect)"
same,Bacterial growth inhibition,"E. coli K12; Peptide 15000 nM, 16 bacteria/ml, 100% medium",− (Lagphase extended less than five times)
same,Bacterial growth inhibition,"E. coli K12; Peptide 15000 nM, 160 bacteria/ml, 100% medium",− (Lagphase extended less than five times)
same,Bacterial growth inhibition,"E. coli K12; Peptide 15000 nM, 1600 bacteria/ml, 100% medium",− (Lagphase extended less than five times)
same,Bacterial growth inhibition,"E. coli K12; Peptide 20000 nM, 4.0 × 10^3 bacteria/ml, 10% medium",+
same,Bacterial growth inhibition,"E. coli K12; Peptide 20000 nM, 4.0 × 10^4 bacteria/ml, 10% medium","((+)) (Lagphase extended less than five times, but still with growth curve effect)"
same,Bacterial growth inhibition,"E. coli K12; Peptide 20000 nM, 7.9 × 10^3 bacteria/ml, 10% medium",+
same,Bacterial growth inhibition,"E. coli K12; Peptide 20000 nM, 16 bacteria/ml, 100% medium","(+) (Significantly extended lagphase, (more than five times))"
same,Bacterial growth inhibition,"E. coli K12; Peptide 20000 nM, 160 bacteria/ml, 100% medium",− (Lagphase extended less than five times)
same,Bacterial growth inhibition,"E. coli K12; Peptide 20000 nM, 1600 bacteria/ml, 100% medium",− (Lagphase extended less than five times)
same,Peptide concentration giving total inhibition of growth,"E. coli K12; cultures with 7.9×10^3 cells/ml, peptide without PNA","at least 20,000 nM"
same,Peptide concentration at which minimal signs of growth inhibition were detected,E. coli K12; peptide without PNA,"≥ 5,000 nM"
same,Bacterial growth inhibition,test culture,"− (key: +: Total inhibition of bacterial growth.; (+): Significantly extended lagphase, (more than five times); −: Lagphase extended less than five times;)"
